These results are taken from paper PMC10969960, “Novel Anthraquinone-Based Benzenesulfonamide Derivatives and Their Analogues as Potent Human Carbonic Anhydrase Inhibitors with Antitumor Activity: Synthesis, Biological Evaluation, and In Silico Analysis” (International Journal of Molecular Sciences, 2024).

Read-outs that look alike come from different tables or passages of the source.

One data set concerns the target T1, hCA II (Homo sapiens, UniProt P00918).
T1 construct: purchased Shanghai Jining Biological
In words: CA inhibition assay, 4-nitrophenyl acetate (4-NPA) esterase assay. Type of data set: biochemical. The note with it: errors ±5–10% of the reported values.

For a further data set, the target named is T2, hCA IX (Homo sapiens, UniProt Q16790).
T2 construct: purchased Shanghai Jining Biological
Described as above. The format is biochemical. The note with it: errors ±5–10% of the reported values.

A further data set relates to MDA-MB-231 cancer cells. In words: MTT anti-proliferative assay. The format is cell-based. The note with it: Homo sapiens, 24 h. In general terms: Tetrazolium dyes change colour on reduction, which living cells bring about.
A further data set deals with MCF-7 cancer cells. In words: MTT anti-proliferative assay. The format is cell-based. The note with it: Homo sapiens, MCF7, 24 h.
The next data set deals with HepG2 cancer cells. Nature of the data set: MTT anti-proliferative assay. The format is cell-based. To be noted: Homo sapiens, 24 h.
In a further data set the test system is HepG2 cells. In words: Annexin V-FITC/propidium iodide analysis of apoptosis. The format is cell-based. To be noted: HepG2, 24 h incubation. As to the method: (§1) Annexin V-FITC/propidium iodide analysis of apoptosis assays were conducted to evaluate the effect of 5c on apoptosis in the MDA-MB-231, MCF-7, and HepG2 cancer cell lines. As shown in Table 3 and Figure 4, a significant increase in the percentage of apoptotic cells (containing early and late apoptosis percentages) and a notable decrease in cell viability were observed after incubation with compound 5c for 24 h.
(§2) Cells were cultured in 6-well plates and treated with the compounds for 24 h. Approximately 1 × 10^5 cells were collected and suspended in binding buffer. Apoptosis was analyzed using an AV/PI apoptosis detection kit (Beyotime Institute of Biotechnology, Shanghai, China) with a flow cytometer (BD Bioscience, Franklin Lakes, NJ, USA).

The test system of a further data set is MCF-7 cells. Described as above. The format is cell-based. The note with it: MCF-7, 24 h incubation. As to the method: as §1, §2
A further data set deals with MDA-MB-231 cells. Described as above. Type of data set: cell-based. To be noted: MDA-MB-231, 24 h incubation. As to the method: as §1, §2
The next data set relates to HepG2 cell line. In words: Mitochondrial membrane potential assay (JC-1 staining). The format is cell-based. The note with it: HepG2, 20 μM, 48 h. As to the method:
(§3) The present study investigated the involvement of mitochondria in compound-5-induced apoptosis by JC-1 staining. Red fluorescence indicates JC-1 aggregates, and green fluorescence indicates membrane potential leading to an increase in JC-1 monomers.
(§4) A mitochondrial membrane potential assay kit (Beyotime Co., Nantong, China) was used to measure the mitochondrial membrane potential with a JC-1 fluorescent probe. […] The cells were then fixed with 4% paraformaldehyde and stained with 5 mg/L JC-1 at 37 °C for 1 h. Fluorescent images were acquired using a fluorescence microscope (Olympus IX81, Olympus, Tokyo, Japan).

The next data set deals with MCF-7 cell line. The data set is described as above. To be noted: MCF-7, 20 μM, 48 h. Type of data set: cell-based. As for the experimental part:
as §3, §4

The test system of a further data set is MDA-MB-231 cell line. Described as above. Type of data set: cell-based. To be noted: MDA-MB-231, 20 μM, 48 h. As for the experimental part: as §3, §4

Procedure for HepG2 cancer cells: (§5) The median growth-inhibitory concentration (IC50) in the treated cells was compared to that of untreated controls. Cells were cultured under normoxic and hypoxic conditions to evaluate the effects of the compounds on cancer cell viability.
(§6) The cell cultures were passaged once every 2–3 days.
(§7) The 3-(4,5-dimethylthiazol-2-yl)-2,5-diphenyltetrazolium bromide (MTT) assay was used to measure the cell viability. Cells were planted into 96-well plates (4 × 10^3 cells per well) and cultured in media containing different concentrations of compounds. […] The supernatant was then discarded, and 150 μL of DMSO was added to each well, followed by gentle shaking. The absorbance value at 570 nm was measured using an EL808 microplate reader (Bio-TEK Instrument, Winooski, VT, USA).
Procedure for MCF-7 cancer cells: as §5, §6, §7
Procedure for MDA-MB-231 cancer cells: as §5, §6, §7
Procedure for hCA II: (§8) The inhibitory activity was evaluated by monitoring the hydrolysis of 4-nitrophenylacetate (4-NPA.).
(§9) Therefore, according to the method described by Verpoorte previously [32], 4-NPA was catalyzed into 4-nitrophenol for the determination of CA activity.
(§10) The substrate (4-NPA) was dissolved in DMSO at a substrate concentration of 1 mM. Standard hCAs II and IX (acquired from Shanghai Jining Biological) were diluted to the indicated concentrations with assay buffer and added to the cells. Different concentrations of inhibitors were added to the cells, followed by incubation at room temperature for 15 min to form complexes of inhibitors and enzymes (E-I). Then, 100 μL of E-I complex and 900 μL of substrate were successively added to a 1 mL glass cuvette and mixed immediately. […] At the same time, the non-enzymatic hydrolysis rate was determined by a blank control test. Standard hCAs II and IX were diluted to final concentrations of 1.5 ng/μL and 5 ng/μL, respectively [26, 35]. The FORECAST (x, known-y’s, known-x’s) command of Excel was used to return a predicted value through the linear regression equation to calculate the IC50 values. The experiments were repeated three times for each inhibitor concentration.
Procedure for hCA IX: as §8, §9, §10

The IC50 is the concentration that gives 50% inhibition. For the compound `NS(=O)(=O)c1ccc(NC(=S)NC(=O)c2ccc3c(c2)C(=O)c2ccccc2C3=O)cc1` [Compound 5c, 9,10-Dioxo-N-((4-Sulfamoylphenyl)Carbamothioyl)-9,10-Dihydroanthracene-2-Carboxamide], the concentration for half-maximal inhibition (IC50) stood at 0.0416 µM against hCA II; 0.0406 µM against hCA IX; 46.2 ± 3.93 µM with MDA-MB-231 cancer cells (hypoxic (0.5% O2), read-out: IC50 MDA-MB-231 Hypo); 48.1 ± 3.23 µM with MDA-MB-231 cancer cells (normoxic, read-out: IC50 MDA-MB-231 Normo); 28.1 ± 1.72 µM in the data set with MCF-7 cancer cells (hypoxic (0.5% O2), read-out: IC50 MCF-7 Hypo); 34.3 ± 2.85 µM in the data set with MCF-7 cancer cells (normoxic, read-out: IC50 MCF-7 Normo). Also, the IC50 with HepG2 cancer cells (hypoxic (0.5% O2), read-out: IC50 HepG2 Hypo) is 69.4 ± 5.16 µM; in the data set with HepG2 cancer cells (normoxic, read-out: IC50 HepG2 Normo) it was 61.4 ± 5.75 µM. For the same compound, the “Cell Viability (Lower Left %)” value is 70.12 ± 2.84% with HepG2 cells, 51.77 ± 2.80% in the data set with MCF-7 cells and 68.88 ± 2.30% in the data set with MDA-MB-231 cells. Besides, the “Total Apoptosis (L.R% + U.R%)” value is reported as 25.06 ± 2.01% in the data set on HepG2 cells, 43.37 ± 3.92% with MCF-7 cells and 27.26 ± 1.76% in the data set with MDA-MB-231 cells. The mitochondrial membrane potential result with HepG2 cell line, in the data set with MCF-7 cell line and in the data set on MDA-MB-231 cell line was “reduction in mitochondrial membrane potential” in each case.
